As usually defined, the IC50 is the concentration at which inhibition is half-maximal. Low readings indicate greater potency in that assay, high ones weaker potency in that assay.

In this test the target is T1, PI3Kα (p110α) (Homo sapiens, UniProt P42336).
T1 construct: gene PIK3CA; N-6*His tag-TEV site-p85α (318–615) - GSPGISGGGGG-full length p110α fusion protein; with p85α (318–615), PIK3R1
As to the kind of experiment: X-ray co-crystal structure (apo crystals soaked); IC50 from PI3K HTRF assay on purified enzyme. In kind it is biochemical. The text has this: X-ray co-crystal structure (apo crystals soaked); IC50 from PI3K HTRF assay on purified enzyme on PI3Kα (p110α) | The crystal structure of PI3Kα–YXY-4F verified that the compound YXY-4F bound to the ATP-binding pocket
For orientation: Time-resolved FRET reads energy transfer from a long-lived donor to a nearby acceptor.

T1 sequence (P42336 whole entry, the tested form may be a part): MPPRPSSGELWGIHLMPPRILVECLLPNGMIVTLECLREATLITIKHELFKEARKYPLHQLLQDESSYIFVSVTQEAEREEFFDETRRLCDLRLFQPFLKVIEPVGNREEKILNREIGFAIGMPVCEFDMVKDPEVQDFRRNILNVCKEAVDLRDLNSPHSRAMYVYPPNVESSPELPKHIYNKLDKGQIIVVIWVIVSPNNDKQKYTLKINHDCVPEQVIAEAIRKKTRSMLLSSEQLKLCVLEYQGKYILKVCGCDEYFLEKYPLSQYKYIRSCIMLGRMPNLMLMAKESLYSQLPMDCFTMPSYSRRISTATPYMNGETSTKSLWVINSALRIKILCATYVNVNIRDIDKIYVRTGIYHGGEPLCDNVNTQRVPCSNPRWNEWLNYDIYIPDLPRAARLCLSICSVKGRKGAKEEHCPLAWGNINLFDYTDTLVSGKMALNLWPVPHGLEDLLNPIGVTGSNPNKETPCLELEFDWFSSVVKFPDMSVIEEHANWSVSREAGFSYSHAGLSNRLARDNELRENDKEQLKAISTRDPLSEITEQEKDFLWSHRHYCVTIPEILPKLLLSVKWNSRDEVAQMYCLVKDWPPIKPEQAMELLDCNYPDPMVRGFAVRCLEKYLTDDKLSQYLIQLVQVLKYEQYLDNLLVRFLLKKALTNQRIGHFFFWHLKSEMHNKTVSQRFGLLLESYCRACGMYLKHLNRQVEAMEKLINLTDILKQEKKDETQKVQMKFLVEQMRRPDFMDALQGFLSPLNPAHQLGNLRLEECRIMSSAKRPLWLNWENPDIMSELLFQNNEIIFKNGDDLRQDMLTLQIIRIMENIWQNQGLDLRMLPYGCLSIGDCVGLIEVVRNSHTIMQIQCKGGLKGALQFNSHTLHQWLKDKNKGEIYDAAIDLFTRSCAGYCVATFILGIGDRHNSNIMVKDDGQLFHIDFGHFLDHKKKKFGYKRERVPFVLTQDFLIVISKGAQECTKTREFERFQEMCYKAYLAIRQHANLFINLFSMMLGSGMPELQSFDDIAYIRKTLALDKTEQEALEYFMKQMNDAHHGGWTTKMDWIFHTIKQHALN
T1 sequence (P27986 318-615 partner): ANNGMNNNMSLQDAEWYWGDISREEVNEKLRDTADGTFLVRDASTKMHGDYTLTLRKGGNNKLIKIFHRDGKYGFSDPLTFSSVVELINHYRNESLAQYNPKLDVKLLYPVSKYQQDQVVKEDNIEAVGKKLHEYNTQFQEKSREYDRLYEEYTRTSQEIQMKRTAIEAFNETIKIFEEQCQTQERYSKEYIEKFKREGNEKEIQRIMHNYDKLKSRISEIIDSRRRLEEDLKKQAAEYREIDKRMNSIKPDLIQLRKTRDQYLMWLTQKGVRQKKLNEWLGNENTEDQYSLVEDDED

As for `Oc1cc(NCc2ccc(F)cc2)cc(-c2nc(N3CCOCC3)c3sccc3n2)c1` [YXY-4F], the midpoint of inhibition, the IC50, lay at 1020 ± 5 nM.

The values are drawn from PMC5674032, “New Insights into PI3K Inhibitor Design using X-ray Structures of PI3Kα Complexed with a Potent Lead Compound” (Scientific Reports, 2017).
